The text below walks through data of patent US7629373B2, “Mitotic kinesin inhibitors” (Merck & Co. Inc., priority 2005, dated 2009).

The target of this assay is T1, human KSP motor domain (KSP(367H)) (Homo sapiens, UniProt P52732).
T1 construct: were used to amplify the motor domain and the neck linker region; made in house; host or cells: E. coli BL21 (DE3), pRSETa
T1 sequence (P52732 18-359 limits assumed): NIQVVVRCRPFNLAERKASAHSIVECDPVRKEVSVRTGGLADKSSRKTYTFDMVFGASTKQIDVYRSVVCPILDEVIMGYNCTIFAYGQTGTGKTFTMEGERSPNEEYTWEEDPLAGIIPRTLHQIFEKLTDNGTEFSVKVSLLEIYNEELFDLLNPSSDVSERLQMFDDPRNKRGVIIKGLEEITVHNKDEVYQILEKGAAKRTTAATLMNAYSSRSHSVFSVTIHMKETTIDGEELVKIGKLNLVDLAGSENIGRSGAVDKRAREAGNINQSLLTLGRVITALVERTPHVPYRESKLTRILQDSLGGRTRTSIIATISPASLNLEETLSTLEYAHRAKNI
The assay is described as follows: Kinesin ATPase In Vitro Assay. The assay is classed as biochemical. The following applies: kinesin motor domain with microtubules, 1 mM ATP, 23° C. The source says:
I. Kinesin ATPase In Vitro Assay
Cloning and Expression of Human Poly-Histidine Tagged KSP Motor Domain (KSP(367H))
Plasmids for the expression of the human KSP motor domain construct were cloned by PCR using a pBluescript full length human KSP construct (Blangy et al., Cell, vol. 83, pp 1159-1169, 1995) as a template. The N-terminal primer 5′-[…] (SEQ. ID. NO.: 1) and the C-terminal primer 5′-[…] […] (SEQ. ID. NO.: 2) were used to amplify the motor domain and the neck linker region. The PCR products were digested with AseI and XhoI, ligated into the NdeI/XhoI digestion product of pRSETa (Invitrogen) and transformed into E. coli BL21 (DE3).
Cells were grown at 37° C. to an OD600 of 0.5. […]
The kinesin motor domain is incubated with microtubules, 1 mM ATP (1:1 MgCl2: Na-ATP), and compound at 23° C. in buffer containing 80 mM K-HEPES (pH 7.0), 1 mM EGTA, 1 mM DTT, 1 mM MgCl2, and 50 mM KCl. […] Free phosphate from the ATP hydrolysis reaction is measured via a quinaldine red/ammonium molybdate assay by adding a […] of quench C (e.g., to a mixture of 40 μl reaction volume+40 μl stop buffer is then added 120 μl quench C). […] Quench C is a 2:1 ratio of quench A:quench B The reaction is incubated for 5-10 minutes at 23° C., and the absorbance of the phospho-molybdate complex is measured at 540 nm.

`CC(=O)N1N=C(c2cc(F)ccc2F)C[C@@]1(CC[C@@H](N)CF)c1ccccc1` [Compound 2-7, [(1R)-3-[(5S)-1-Acetyl-3-(2,5-difluorophenyl)-5-phenyl-4,5′-dihydro-1H-pyrazol-5-yl]-1-(fluoromethyl)propyl]amine] showed an IC50 of at most 50 µM.
In turn, `CC(=O)N1N=C(c2cc(F)ccc2F)C[C@@]1(CC[C@H](N)CF)c1ccccc1` [Compound 2-8, [(1S)-3-[(5S)-1-Acetyl-3-(2,5-difluorophenyl)-5-phenyl-4,5-dihydro-1H-pyrazol-5-yl]-1-(fluoromethyl)propyl]amine] registered an IC50 of at most 50 µM.

For orientation: IC50 means the concentration that gives 50% inhibition. Low readings indicate greater potency, high ones weaker potency.
